Results on 82 compounds are retold here after PubChem BioAssay AID2765 (Broad Institute, 2010).

Each structure is given as a SMILES string. Activity calls are given as the source filed them.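 The calls were made as follows: active = half-maximal concentration for the rise in caspase light signal at or below ten times the top tested dose; inconclusive = flat fit between 30% and 70% activity, or unreliable curve fit; inactive = the rest.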

The test system of the assay is MEF A1-2A-BIM cells, caspase 3/7 luminescence, 3 h. The experiment in a line: caspase activation in A1-2A-BIM MEF cells, dose response, A1 inhibitor project, cell-based, luminescence, retest (AID 2765).

Broadly, the EC50 is the concentration that produces a half-maximal response. In the case of `C#CCOCCOCCOCCNc1nc(N2CCN(C(=O)[C@H](CCCCN)n3cc(CCCC)nn3)CC2)nc(N2CCN(C(=O)[C@H](CCCCN)n3cc(CCC(=O)O)nn3)CC2)n1`, the EC50 is > 35 µM (inactive).

Regarding `O=C(c1cc(C2CC2)nn1-c1ccccc1)N1CCN(S(=O)(=O)c2cccc(F)c2)CC1`, the EC50 is > 35 µM (inactive).

As to `C=C(C(=O)Oc1ccccc1C(C)(C)C)c1ccccc1`, the EC50 is 15.9 µM.

In the case of `COC(=O)C1SCC2C(=O)N(Cc3ccc(Cl)cc3)CC(=O)N21` (configuration not stated), the EC50 is > 35 µM (inactive).

For `c1ccc(Cc2nn3c(Cn4nnc5ccccc54)nnc3s2)cc1`, the EC50 was > 35 µM (inactive).

With `CCN(C[C@H]1N[C@@](CC)(C(=O)OC)[C@H]2C(=O)N(Cc3ccccc3)C(=O)[C@@H]12)C(=O)c1ccc(F)cc1`, the EC50 was > 35 µM (inactive).

For the compound `Cc1cc(=O)oc2c3c(cc(OCC(=O)N[C@@H](CC(C)C)C(=O)O)c12)OC(C)(C)CC3`, the EC50 is > 35 µM (inactive).

In the case of `Cc1ccc(-n2nc3c(=O)n(C(C)C(=O)NCc4ccccc4Cl)nc(C)c3c2C)cc1` (configuration not stated), the EC50 is > 35 µM (inactive).

For the compound `CCOC(=O)CNC(=O)N1CCCC(CNS(=O)(=O)Cc2ccccc2)C1` (configuration not stated), the EC50 was > 35 µM (inactive).

Take `Cn1c(SCc2ccccc2)nc(N)c(N=O)c1=O`: the EC50 was > 35 µM (inactive).

As to `CCC(NC(=O)c1cccc(Cn2cc([N+](=O)[O-])cn2)c1)c1ccc(C(C)C)cc1` (configuration not stated), the EC50 is > 35 µM (inactive).

Consider `CSc1nc(N)c(N=Nc2ccc([As](=O)(O)O)cc2)c(=O)[nH]1`, for which the EC50 is > 35 µM (inactive).

`COc1ccc(C[C@H]2NC[C@H](O)[C@H]2OC(C)=O)cc1`: the EC50 is > 35 µM (inactive).

Turning to `CC(=O)Nc1ccc(/C(C)=N/Nc2nc(Nc3ccccc3)nc(N3CCOCC3)n2)cc1`, the EC50 is > 35 µM (inactive).

Turning to `O=C(Nc1ccc2oc(-c3cccc(F)c3)nc2c1)c1ccccc1F`, the EC50 is > 35 µM (inactive).

Consider `CCOCCCNC(=O)c1ccc(N2CC3CC(C2)c2cccc(=O)n2C3)c(NC(=O)Nc2cccc(OC)c2)c1` (configuration not stated), for which the EC50 is > 35 µM (inactive).

Regarding `Cc1cc(C(F)(F)F)n2ncc(-c3cccc(Br)c3)c2n1`, the EC50 was > 35 µM (inactive).

In the case of `O=C(Nc1ccc2oc(-c3ccccc3F)nc2c1)c1ccccc1F`, the EC50 is > 35 µM (inactive).

As to `CC(C)(C)CC(=O)Nc1nnc(SCC(=O)NC2CCCCC2)s1`, the EC50 was > 35 µM (inactive).

With `O=C(Oc1cccc(/C=N/Nc2nc(Nc3ccccc3)nc(N3CCOCC3)n2)c1)c1ccco1`, the EC50 is > 35 µM (inactive).

As for `O=C(O)c1ccccc1SCCS(=O)(=O)c1ccc(Cl)cc1Cl`, the EC50 was > 35 µM (inactive).

With `COc1oc(-c2ccccc2)nc1C(F)(F)F`, the EC50 is > 35 µM (inactive).

With `Cc1cc(N2C(=O)C=CC2=O)c([N+](=O)[O-])cc1C`, the EC50 was > 35 µM (inactive).

In the case of `O=[N+]([O-])/C=C/c1cn(Cc2ccc(Cl)cc2)c2ccccc12`, the half-maximal effective concentration (EC50) was 21.6 µM.

Regarding `CC(=O)N1CCN(C(=S)c2ccc([N+](=O)[O-])cc2)CC1`, the EC50 is > 35 µM (inactive).

`COc1ccc(NS(=O)(=O)c2cc(NC(=O)c3ccc(Cl)cc3)ccc2N2CCOCC2)cc1`: the EC50 is > 35 µM (inactive).

With `Cc1cc(=O)[nH]c(SCC(=O)Nc2ccc(Br)cc2)c1C#N`, the EC50 was > 35 µM (inactive).

As to `O=C(Cc1ccccc1)Oc1cccc(N2C(=O)CCC2=O)c1`, the EC50 was > 35 µM (inactive).

As to `COc1cc(-c2cc(-c3ccccc3)nc(SCC(=O)Nc3nccs3)c2C#N)cc(OC)c1OC`, the EC50 is > 35 µM (inactive).

In the case of `COc1cccc(-c2cc(C(F)(F)F)c(C#N)c(=O)[nH]2)c1`, the EC50 was > 35 µM (inactive).

`Cc1ccc(NC(=O)CSc2nnc(C)n2-c2ccccc2)cc1`: the EC50 was > 35 µM (inactive).

On to `CCOc1ccc(OCc2ccc(C(=O)NN=Cc3ccc[nH]3)cc2)cc1`, for which the EC50 is > 35 µM (inactive).

On to `CN1CCN(CCCNC(=O)c2ccc3c(Cl)c4c(nc3c2)CCCC4)CC1`, for which the EC50 was > 35 µM (inactive).

As to `O=C(CN(C(=O)CCC(=O)Nc1nccs1)c1cccc(F)c1)NCc1ccccc1`, the EC50 is > 35 µM (inactive).

With `COc1cc(NC(=O)c2cccs2)ccc1NC(=O)c1cc2ccccc2o1`, the EC50 was > 35 µM (inactive).

As to `CSc1ccc(S(=O)(=O)N2CCC(C(=O)NCCc3ccccc3)CC2)cc1`, the EC50 is > 35 µM (inactive).

Turning to `CC(C)Oc1ccc(C(=O)OCC(=O)NC2CCCCCC2)cc1`, the EC50 is > 35 µM (inactive).

Turning to `CC(C)C(=O)n1nc(-c2cccnc2)nc1NCc1ccc(F)cc1`, the EC50 is > 35 µM (inactive).

`O=C(N/N=C/c1ccccc1O)C1CC(=O)N(c2ccc(F)cc2)C1` (configuration not stated): the EC50 is > 35 µM (inactive).

For the compound `CCC(C)[C@@H](C(=O)NCC1CCC(C(=O)O)CC1)n1nnc2ccccc2c1=O` (some centres not stated), the EC50 was > 35 µM (inactive).

Take `COc1ccc(-c2nn(-c3ccccc3)cc2/C=C/C(=O)OCC(=O)Nc2ccccc2C#N)cc1`: the EC50 is 21.2 µM.

With `COc1ccc(-c2ccc3c(c2)S(=O)(=O)c2cccc(C(=O)NC[C@@H]4CCCO4)c2C3=O)cc1OC`, the EC50 was > 35 µM (inactive).

With `Cn1cccc1C(=O)NC(=O)COC(=O)c1ccc(S(C)(=O)=O)cc1`, the EC50 is > 35 µM (inactive).

`O=C(CSc1ncccc1C(=O)O)NC1CCCCC1`: the EC50 was > 35 µM (inactive).

`CCS(=O)(=O)Nc1ccc(Cc2ccncc2)cc1`: the EC50 is > 35 µM (inactive).

In the case of `CCOC(=O)Cc1csc(/N=C/c2c(O)n(-c3ccc(C)c(C)c3)c(=O)c3ccccc23)n1`, the EC50 was 9.23 µM.

As for `CCN(CC)S(=O)(=O)c1cc(NC(=O)C2Cc3ccccc3C(=O)O2)ccc1C` (configuration not stated), the EC50 was > 35 µM (inactive).

Regarding `CC(=O)c1ccc(N(C(=O)c2csnn2)C(C(=O)NC(C)(C)C)c2cccs2)cc1` (configuration not stated), the EC50 is > 35 µM (inactive).

`CCOc1ccc(-c2ccc(NS(=O)(=O)c3ccc([N+](=O)[O-])cc3)cc2)nn1`: the EC50 was > 35 µM (inactive).

On to `CCCCc1ccc(S(=O)(=O)NC2CCS(=O)(=O)C2)cc1` (configuration not stated), for which the EC50 was > 35 µM (inactive).

As to `Cc1nc(SCc2nc3c([N+](=O)[O-])cccc3[nH]2)c2oc3ccccc3c2n1`, the EC50 was > 35 µM (inactive).

Regarding `COc1ccc(C(=O)COC(=O)Cn2[nH]c(=O)c3ccccc3c2=O)c(OC)c1`, the EC50 is > 35 µM (inactive).

In the case of `CC(C)[C@H](NC(=O)[C@@H]1Cc2ccccc2CN1C(=O)OC(C)(C)C)C(=O)NC1CCCC1`, the EC50 is > 35 µM (inactive).

For `Cc1ccn(C(=O)c2ccc(NC(=O)C3CCCCC3)cc2)n1`, the EC50 is > 35 µM (inactive).

`CCSc1ccc(-c2nn(-c3ccccc3)cc2/C=C(/C#N)C(=O)NC)cc1`: the EC50 is > 35 µM (inactive).

For `O=C(O)C(CCCCNS(=O)(=O)c1ccc(F)cc1)NS(=O)(=O)c1ccc(F)cc1` (configuration not stated), the EC50 is > 35 µM (inactive).

Consider `COc1ccccc1CCCNC(=O)C1CCC(=O)N(Cc2ccccc2F)C1` (configuration not stated), for which the EC50 was > 35 µM (inactive).

In the case of `Cc1[nH]nc2nc(SCC(=O)NCCC3=CCCCC3)n(-c3ccc(Br)cc3)c(=N)c12`, the EC50 was 13.9 µM.

`COc1ccc(-c2ccc(NS(=O)(=O)c3cc([N+](=O)[O-])c(C)c([N+](=O)[O-])c3)cc2)nn1`: the EC50 is > 35 µM (inactive).

In the case of `COc1ccc([C@H]2CC(=O)C=C(c3ccccc3C(F)(F)F)C2)cc1`, the EC50 is > 35 µM (inactive).

Turning to `Cc1ccc(C=C2C(Cl)=C(Cl)C(Cl)=C2Cl)cc1`, the EC50 was 7.19 µM.

Consider `Cc1cc(=O)oc2c1c(C)nn2-c1ccc(Cl)cc1`, for which the EC50 was > 35 µM (inactive).

For `O=S1(=O)C=C(Sc2nnc(-c3ccccc3)o2)c2ccccc21`, the EC50 is > 35 µM (inactive).

As for `COc1ccc(S(=O)(=O)N(C)C[C@H]2Oc3ccc(NC(=O)Nc4c(C)noc4C)cc3C(=O)N([C@H](C)CO)C[C@@H]2C)cc1`, the EC50 is > 35 µM (inactive).

Regarding `O=C(Nc1ccc(-c2nc3cc(NC(=O)c4cccs4)ccc3o2)cc1)c1cccs1`, the EC50 is > 35 µM (inactive).

Consider `COc1ccc(N2CCN(C(=O)CCn3nnc4ccccc43)CC2)cc1`, for which the EC50 was > 35 µM (inactive).

Consider `O=C(Nc1ccc(S(=O)(=O)N2CCOCC2)cc1)c1ccco1`, for which the EC50 is > 35 µM (inactive).

As for `CC(C)C(OC(=O)c1cc2c(s1)CCCCC2)C(=O)NC(N)=O` (configuration not stated), the EC50 is > 35 µM (inactive).

With `CCOc1ccc(N2CC(C(=O)NNC(=O)c3ccc(Br)cc3)CC2=O)cc1` (configuration not stated), the EC50 was > 35 µM (inactive).

For the compound `NC(=O)c1ccc[n+](CC(=O)NCc2ccc(Cl)cc2)c1`, the EC50 is > 35 µM (inactive).

Turning to `Cc1cc(N2C(=O)C(O)=C(C(=O)c3cc4ccccc4o3)C2c2ccc(Br)cc2)no1` (configuration not stated), the EC50 was > 35 µM (inactive).

As for `Cc1cc(C)cc(NC(=O)CCN2CCCC2)c1`, the EC50 was > 35 µM (inactive).

For the compound `CCOC(=O)C1=C(c2ccccc2)O/C(=C(/C#N)C(F)(F)F)S1`, the EC50 was > 35 µM (inactive).

As to `Cc1ccc(NC(=S)N(CCCN2CCCC2)Cc2cccn2Cc2ccc(Cl)cc2)cc1Cl`, the EC50 was > 35 µM (inactive).

In the case of `O=C(c1cc(-c2ccccn2)nc2ccc(Cl)cc12)N1CCN(CCc2ccccc2)CC1`, the EC50 is > 35 µM (inactive).

Consider `O=C(NCCN1CCN(c2ccccc2)CC1)c1ccc2c(c1)[nH]c(=S)n1c3ccccc3nc21`, for which the EC50 is > 35 µM (inactive).

As for `COC(=O)c1cc(CNC(=O)CC(C)c2ccccc2)ccc1OC` (configuration not stated), the EC50 is > 35 µM (inactive).

`CCCCc1ccc(-c2csc(/C(C#N)=C\c3ccc(C)o3)n2)cc1`: the EC50 is > 35 µM (inactive).

`CC(C)C(=O)Nc1cc(S(=O)(=O)N2CCOCC2)ccc1N1CCCCC1`: the EC50 is > 35 µM (inactive).

For the compound `COc1cc(NS(=O)(=O)c2cc(C(=O)NCCc3ccccn3)ccc2OC)cc(OC)c1`, the EC50 is > 35 µM (inactive).

With `COC(=O)CN(c1ccc(OC)c(OC)c1)S(C)(=O)=O`, the EC50 was > 35 µM (inactive).

With `O=C(C1=NN[C@@H]2C(=O)N(Cc3ccccc3)C(=O)[C@H]12)c1ccc(F)cc1`, the EC50 is > 35 µM (inactive).
